Data on four compounds can be found in patent publication US7282203B2, “Use of NOTCH pathway interfering agents for treatment of plasma cell disorders” (Health Research, Inc., priority 2003, dated 2007).

The subject of one assay is OPM2 MM cells. Nature of the assay: MTT assay, percent of living OPM2 MM cells cultured on fibroblast cells. The following applies: for IC50: Homo sapiens, OPM-2. The assay is classed as cell-based. How it is done:
FIG. 11A-D. IC50 for OPM2 cells (MM) incubated with doxorubicin (DOX) alone or in the presence of an anti-NOTCH or anti-JAG2 antibody. OPM2 (MM) cells were cultured on fibroblasts (MRC5) In FIG. 11 A, IC50 data is shown for cells incubated with different concentrations of DOX. In FIG. 11B, IC50 data is shown for OPM2 cells on fibroblast with […] DOX, an isotype antibody or an anti-NOTCH-EC antibody. In FIG. 11C, data is shown for the effect of the anti-NOTCH antibody alone, without DOX. In FIG. 11D, IC50 values are shown for OMP2 cells incubated alone, in the presence of DOX or in the presence of DOX with an anti-JAG2 antibody (M8).
To illustrate this embodiment, the anti-NOTCH-EC antibody or the anti-JAG2 antibody was used in combination with doxorubicin (DOX). The OPM2 MM cells were cultured for 48 hours on fibroblast cells with different concentrations of DOX. […] However, when increasing concentrations of the anti-JAG2 were added, the percent of living cells was seen to decrease.
In general terms: Formazan colour is commonly taken as a measure of viable cells.

A further assay has as its system multiple myeloma. To be noted: cited from earlier work.
Another assay deals with RPMI8226 cell line. Nature of the assay: Cytokine secretion on incubation of RPMI8226 cell line with JAG2 binding peptide. The assay is classed as cell-based. To be noted: RPMI8226 MM cell line. How it is done:
(§1) FIGS. 8A-C. Induction of the secretion of IL-6 (FIG. 8A); VEGF (FIG. 8B) and IGF-1 (FIG. 8C) by incubation of the MRC5 and RPMI8226 cell lines with a JAG2 binding peptide CDENYYSATCNKFCRPRND (SEQ ID NO:1) at the indicated concentrations.
(§2) In order to ascertain the involvement of JAG2 in the induction of the secretion of IL-6, VEGF and IGF-1, we incubated the MRC5 cell line with different concentrations of JAG2 peptide. This peptide corresponds to the binding region of JAG2 that activates NOTCH upon interaction. We also incubated the RPMI8226 cell line with this same peptide.

In the next assay the test system is MRC5 cell line. Nature of the assay: Cytokine secretion on incubation of MRC5 cell line with JAG2 binding peptide. The assay is classed as cell-based. To be noted: MRC5, different concentrations of peptide. How it is done: as §1, §2

Take `COc1cccc2c1C(=O)c1c(O)c3c(c(O)c1C2=O)C[C@@](O)(C(=O)CO)C[C@@H]3O[C@H]1C[C@H](N)[C@H](O)[C@H](C)O1` [DOX, doxorubicin]: in the assay on OPM2 MM cells (DOX alone (FIG. 11D)), the “percent of living cells” value is reported as “no effect”. Moreover, the IC50 (commonly the concentration that gives 50% inhibition) in the assay with OPM2 MM cells (DOX alone, 48 hours on fibroblast cells) is approximately 1000 nM; in the assay on OPM2 MM cells (DOX in the presence of 40 μg (27 μg/ml) anti-NOTCH EC antibody) it was 100 nM. Also, the “reduction of DOX concentration at IC50” value in the assay with OPM2 MM cells (with 40 μg anti-NOTCH EC antibody versus DOX alone) was approximately 10 times.
Consider `N[C@@H](Cc1ccc(N(CCCl)CCCl)cc1)C(=O)O` [Melphalan], for which the “patients reaching complete remission (CR)” value with multiple myeloma (conventional chemotherapy, mainly Melphalan) was 14%.
Consider `CC(C)C[C@H](NC(=O)[C@H](Cc1ccccc1)NC(=O)c1cnccn1)B(O)O` [PS341], for which, in the assay with multiple myeloma (available trials), the CR/PR was 47% and the “patients showing a >75% reduction of paraprotein” value is on record as 30%.
For “NH2-CDENYYSATCNKFCRPRND-OH (H-CDENYYSATCNKFCRPRND-OH; cysteine pairing not given here) [JAG2 binding peptide]”, in the assay with RPMI8226 cell line, the “secretion of IGF-1” value is “no stimulation”, the “secretion of IL-6” value is reported as “no stimulation” and the “secretion of VEGF” value is “no stimulation”. Further, in the assay with MRC5 cell line, the “secretion of IGF-1” value is “activated”, the “secretion of IL-6” value is “activated” and the “secretion of VEGF” value was “activated”.
